Measurements reported in US20260138970A1, “MODULATORS OF THE CALCIUM SIGNALING CASCADE” (FONDAZIONE TELETHON ETS, priority 2022, published 2026).

Key:
Format in all cases: cell-based
TMEM16A = test: Short-circuit current recordings on human cultured bronchial epithelia, UTP-triggered Cl- secretion; settings: UTP 0.25 μM; ARN7149 10 μM, ARN11391 20 μM, ARN4550 20 μM; amiloride, paxillin, inh-172 present; FIG. 5A
Method: Human bronchial epithelial cells (HBECs) were isolated and cultured as reported in a previous study (21; 40). Briefly, HBECs were cultured in flasks in a home-made serum-free medium (21). After four to five passages, cells were seeded at high density (500,000/cm^2) on Snapwell porous insert (cc3801, Corning Costar). After 24 h from seeding, the basolateral medium was replaced with differentiation medium PneumaCult ALI (Stemcell Technologies), whereas the apical medium was totally removed to obtain the air-liquid interface (ALI) condition. Epithelia were kept under this condition for at least 2-3 weeks to achieve mucociliary differentiation.
Snapwell supports (3801, Corning) carrying FRT and differentiated HBEC epithelia were mounted in a vertical chamber resembling an Ussing system with internal fluid circulation (EM-CSYS-8, Physiologic Instruments, San Diego, CA, USA). For FRT epithelia, the apical and basolateral hemichambers were filled with solutions of different composition. The apical solution (5 ml) contained (in mM): 63 NaCl, 63 sodium gluconate, 0.38 KH2PO4, 2.13 K2HPO4, 2 CaCl2, 1 MgSO4, 20 Na-Hepes (pH 7.3), and 10 glucose. The basolateral solution (5 ml) instead contained (in mM): 126 KCl, 0.38 KH2PO4, 2.13 K2HPO4, 1 CaCl2, 1 MgSO4, 20 Na-Hepes (pH 7.3), and 10 glucose. Both solutions were continuously bubbled with air and the temperature of the solution was kept at 37° C. For HBECs, the same (bicarbonate-buffered) solution was used in both chambers. The composition of this solution was (in mM): 126 NaCl, 0.38 KH2PO4, 2.13 K2HPO4, 1 MgSO4, 1 CaCl2), 24 NaHCO3, and 10 glucose. Both sides were continuously bubbled with a gas mixture containing 5% CO2 and 95% air. […]
Transepithelial voltage was short-circuited with a voltage-clamp (VCC MC8, Physiologic Instruments, San Diego, CA, USA) connected to the apical and basolateral chambers via Ag—AgCl electrodes and agar bridges (2% agar in 1 M KCl). […] The resulting short-circuited current from each channel was recorded on a personal computer with the Acquire & Analize 2.3 software (Physiologic Instruments, San Diego, CA, USA).

ITPR2 = biological target: T1, ITPR2 (Homo sapiens, UniProt Q14571); test: Fluo-4 Ca2+ assay, UTP, HEK293 cells with selective expression of ITPR2 (HEKR2); settings: compounds 10 μM; UTP 1 μM; FIG. 2C
T1 construct: host or cells: HEKR2 (HEK293)
T1 sequence (Q14571 whole entry): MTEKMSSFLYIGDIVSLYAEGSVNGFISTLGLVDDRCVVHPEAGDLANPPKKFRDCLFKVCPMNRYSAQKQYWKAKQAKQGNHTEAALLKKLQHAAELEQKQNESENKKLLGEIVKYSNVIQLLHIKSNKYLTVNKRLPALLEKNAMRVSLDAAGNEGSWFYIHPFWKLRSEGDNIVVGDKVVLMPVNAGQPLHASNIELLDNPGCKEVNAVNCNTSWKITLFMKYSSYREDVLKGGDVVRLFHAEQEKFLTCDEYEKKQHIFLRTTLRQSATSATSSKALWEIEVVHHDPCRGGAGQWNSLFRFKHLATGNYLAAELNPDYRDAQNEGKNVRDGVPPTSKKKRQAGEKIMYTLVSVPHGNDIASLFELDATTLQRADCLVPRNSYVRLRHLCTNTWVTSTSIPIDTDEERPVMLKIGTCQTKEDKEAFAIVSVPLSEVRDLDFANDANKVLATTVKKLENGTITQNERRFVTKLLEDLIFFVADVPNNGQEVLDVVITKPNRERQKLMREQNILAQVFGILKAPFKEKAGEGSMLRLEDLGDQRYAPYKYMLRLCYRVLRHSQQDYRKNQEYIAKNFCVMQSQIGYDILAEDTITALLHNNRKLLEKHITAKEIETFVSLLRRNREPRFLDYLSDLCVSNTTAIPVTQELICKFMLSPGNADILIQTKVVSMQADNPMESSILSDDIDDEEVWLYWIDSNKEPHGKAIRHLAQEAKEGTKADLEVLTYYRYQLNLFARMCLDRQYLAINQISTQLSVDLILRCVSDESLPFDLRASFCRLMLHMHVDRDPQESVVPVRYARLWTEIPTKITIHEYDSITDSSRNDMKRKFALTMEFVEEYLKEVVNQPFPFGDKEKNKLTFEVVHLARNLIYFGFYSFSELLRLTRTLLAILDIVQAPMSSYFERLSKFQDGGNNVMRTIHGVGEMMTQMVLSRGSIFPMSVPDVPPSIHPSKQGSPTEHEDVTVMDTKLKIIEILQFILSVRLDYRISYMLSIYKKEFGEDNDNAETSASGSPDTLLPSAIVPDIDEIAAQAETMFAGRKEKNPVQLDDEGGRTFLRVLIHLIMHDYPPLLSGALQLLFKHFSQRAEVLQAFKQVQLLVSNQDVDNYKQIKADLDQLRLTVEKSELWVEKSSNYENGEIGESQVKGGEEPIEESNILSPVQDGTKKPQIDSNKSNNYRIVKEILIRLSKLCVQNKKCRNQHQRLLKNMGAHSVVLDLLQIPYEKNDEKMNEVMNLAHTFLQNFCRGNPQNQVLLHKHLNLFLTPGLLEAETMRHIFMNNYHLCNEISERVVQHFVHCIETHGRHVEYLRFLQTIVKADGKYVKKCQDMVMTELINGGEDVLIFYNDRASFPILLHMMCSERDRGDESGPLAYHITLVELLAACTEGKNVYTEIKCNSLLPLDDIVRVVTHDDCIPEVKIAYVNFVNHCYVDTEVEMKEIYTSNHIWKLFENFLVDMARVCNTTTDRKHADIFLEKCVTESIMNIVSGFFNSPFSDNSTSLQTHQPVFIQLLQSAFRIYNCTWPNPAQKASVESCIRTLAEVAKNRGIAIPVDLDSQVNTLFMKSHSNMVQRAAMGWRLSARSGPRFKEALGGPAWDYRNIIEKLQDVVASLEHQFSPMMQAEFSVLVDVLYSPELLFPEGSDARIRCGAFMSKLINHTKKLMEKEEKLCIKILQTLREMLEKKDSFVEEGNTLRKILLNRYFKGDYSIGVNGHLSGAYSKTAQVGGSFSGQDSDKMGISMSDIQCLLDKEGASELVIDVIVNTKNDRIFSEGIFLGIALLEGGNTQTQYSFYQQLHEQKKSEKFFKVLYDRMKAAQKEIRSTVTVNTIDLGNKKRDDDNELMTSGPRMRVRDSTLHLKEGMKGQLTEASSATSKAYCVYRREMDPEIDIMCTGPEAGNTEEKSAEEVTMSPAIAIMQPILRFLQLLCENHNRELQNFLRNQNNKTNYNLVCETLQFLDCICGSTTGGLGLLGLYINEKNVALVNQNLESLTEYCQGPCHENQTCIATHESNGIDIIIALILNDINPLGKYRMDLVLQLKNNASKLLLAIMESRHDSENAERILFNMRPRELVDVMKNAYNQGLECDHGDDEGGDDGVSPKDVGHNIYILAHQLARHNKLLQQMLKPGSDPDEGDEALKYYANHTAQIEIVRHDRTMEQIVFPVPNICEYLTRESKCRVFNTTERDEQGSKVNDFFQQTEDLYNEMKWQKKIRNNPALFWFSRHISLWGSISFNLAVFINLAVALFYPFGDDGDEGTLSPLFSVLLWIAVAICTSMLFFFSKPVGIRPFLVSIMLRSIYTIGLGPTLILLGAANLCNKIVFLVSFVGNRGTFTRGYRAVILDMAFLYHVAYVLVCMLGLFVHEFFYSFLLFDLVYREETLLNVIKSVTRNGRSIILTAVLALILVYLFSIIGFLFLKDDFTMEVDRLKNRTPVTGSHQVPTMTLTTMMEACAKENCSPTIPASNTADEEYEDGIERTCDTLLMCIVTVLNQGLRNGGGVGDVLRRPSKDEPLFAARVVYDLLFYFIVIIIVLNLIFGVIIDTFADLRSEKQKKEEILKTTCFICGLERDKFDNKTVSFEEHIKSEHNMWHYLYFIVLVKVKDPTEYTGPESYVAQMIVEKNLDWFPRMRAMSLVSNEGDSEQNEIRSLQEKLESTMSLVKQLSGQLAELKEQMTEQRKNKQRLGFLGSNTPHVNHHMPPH
Method: HEK293 cells totally devoid of ITPR expression (HEK3XKO) or with selective expression of ITPR1 (HEKR1), ITPR2 (HEKR2), or ITPR3 (HEKR3), obtained by selective gene ablation, were purchased from Kerafast (catalog number: EURO30, EURO31, EURO32, EURO33) and cultured in a mixture of Dulbecco's Modified Eagle Medium (DMEM, high glucose version) and Ham's F12 (1:1) and supplemented with 10% fetal bovine serum, 2 mM L-glutamine, 100 U/ml penicillin and 100 μg/ml streptomycin.
Experiments were performed using the microplate reader described for the HS-YFP assay. FRT and HEK293 cells were cultured until confluence in 96-well microplates (3603, Corning). Cells were washed 2 times with PBS (150 μl/wash) and then loaded for 1 h at 37° C. with 5 μM Fluo-4/AM (Thermo Fisher Scientific; catalog number: F23917) in PBS containing 10 mM glucose, 0.5 mM sulfinpyrazone, and 1% fetal bovine serum. After loading, cells were washed 2 times with PBS-glucose-sulfinpyrazone (150 μl/wash) and incubated for 20 min at 37° C. with 60 μl of PBS plus 10 mM glucose and 0.5 mM sulfinpyrazone containing compounds of interest at 10 μM final concentration or vehicle. Each well was assayed individually. Fluo-4 fluorescence (500 nm excitation, 535 nm emission) was detected every 200 ms for 16-40 s. Two seconds after the start of fluorescence recording, the reader automatically injected 165 μl of a modified PBS containing 136 mM KCl instead of NaCl. This solution also contained 10 mM glucose, 0.5 mM sulfinpyrazone, and UTP or SLIGR-NH2 (CAS #171436-38-7) at a final concentration that depended on the specific cell type. For UTP we used: 0.25 μM for FRT; 1 μM for HEKR2; 5 μM for HEK3XKO, HEKR1, and HEKR3. For SLIGR-NH2 we used: 10 μM for HEKR1; 4 μM for HEKR2. These concentrations were chosen to elicit ˜20% of maximal effect based on UTP and SLIGR-NH2 dose-response relationships. […] The Fluo-4 fluorescence increase was quantified using a procedure compiled in Microsoft Excel after background subtraction and normalization for the initial value measured before UTP addition.

PLC = PLC assay in FRT cells expressing PH-PLC-GFP sensor; settings: compounds 10 μM, cytosolic GFP increase, FIG. 3; for potentiation of UTP effect on PLC activity, lower UTP concentration: UTP 0.25 μM; for potentiation of UTP effect on PLC activity, higher UTP concentration: UTP 100 μM
Method: FRT cells with stable expression of PLC6-PH-GFP, generated in the laboratory of inventors, were cultured up to subconfluent condition in p-Plate96 microplates (Ibidi). Each well of a 96-well microplate was washed 3 times, leaving 125 μl of phosphate-buffered saline (PBS) containing compounds at 10 μM final concentration or vehicle. After 20 min of incubation at 37° C., microplate was moved on the stage of an inverted microscope equipped with GFP excitation/emission filters, 40×oil immersion objective (Olympus, Segrate, Italy), Lambda DG4 illumination system (Sutter Instrument Co., Novato, CA, USA), Prime cmos camera (Photometrics, Tucson, AZ, USA) and MetaMorph imaging acquisition software (Molecular Devices, Sunnyvale, CA, USA). Time-lapse experiments were carried out with 50 ms exposure time, 20 frame/s rate, and 2.4 min total duration. After 20 s and 90 s, UTP 0.25 μM and 100 μM (final concentrations) was respectively added. Analysis was performed with MetaMorph software, by quantifying GFP fluorescence cytoplasmic accumulation in manually selected single cell regions of interest (ROI). After background subtraction, fluorescence recordings were normalized for the initial value.

Compound	transepithelial Cl- current elicited by apical UTP (TMEM16A)	potentiation of UTP-elicited Ca2+ increase, ITPR2-only cells (ITPR2)	potentiation of UTP effect on PLC activity, lower UTP concentration (PLC)	potentiation of UTP effect on PLC activity, higher UTP concentration (PLC)
OCc1ccccc1CN(Cc1ccnc(N2CCCC2)n1)c1ccc(F)cc1 [ARN4550, [2-[[4-Fluoro-N-[(2-pyrrolidin-1-ylpyrimidin-4-yl)methyl]anilino]methyl]phenyl]methanol]	significantly enhanced	always effective	significantly potentiated	effective
CCc1cc(-c2cc(NCCCOc3ccccc3C)nc(N)n2)n(C)n1 [ARN7149, 6-(3-Ethyl-1-methyl-1H-pyrazol-5-yl)-N^4-(3-(o-tolyloxy)propyl)pyrimidine-2,4-diamine]	significantly enhanced	always effective	significantly potentiated	effective
CCn1nc2c(c1C(=O)Nc1ccccc1OCC1CCCCO1)CCCC2 (centres unmarked) [ARN11391, 2-Ethyl-N-[2-(tetrahydropyran-2-ylmethoxy)phenyl]-4,5,6,7-tetrahydroindazole-3-carboxamide]	significantly enhanced	only effective in cells with ITPR1		effective
